row,SMILES,melting point
1,CCCCCNS(=O)(=O)NC(=O)/C(C)=C/c1ccc(OCCOC)cc1Oc1ncc(C(F)(F)F)cc1Cl,152 to 153 °C
2,COc1cc2c(cc1O)C(Cc1cc(Br)c(OC)cc1[N+](=O)[O-])N(C)CC2 (centres undefined),146 °C
3,CCCCCCCCCCCCOc1cccc2c(OCCCCCCCCCCCC)cccc12,92 to 93 °C
4,O=C(NCC(F)F)/C(=C/c1ccc(OC(F)(F)F)cc1)NC(=O)c1ccc(OCCC(F)(F)F)cc1,142 to 143 °C
5,C#CCOc1cc(C2(C(F)(F)F)CC(=O)NC(OCC)=N2)c(F)cc1Br (centres undefined),101 to 102 °C
6,CN1C(=O)[C@@H](CN2CCCCC2)C[C@H]1c1ccc(Br)cc1,55 to 58 °C
7,CC1(C)Oc2ccc(OCCCC(F)(F)F)cc2[C@H](NS(C)(=O)=O)[C@H]1O,186 °C
8,Fc1ccc(Nc2ncnc3cnc(N4CCCCCC4)nc23)cc1Cl,87 to 90 °C
9,COc1ccc(Cn2c(=O)c3ccc([N+](=O)[O-])cc3n(CCCCBr)c2=O)cc1,122 to 123 °C
10,Nc1nc(-n2cc(C(=O)O)c(=O)c3cc(F)c(F)c(Cl)c32)c(Cl)cc1F,280 °C
11,CCCCS(=O)(=O)NC(CNC(=O)c1cccc(C(=O)C2CCC3(CCNCC3)CC2)c1)C(=O)O (centres undefined),155 to 157 °C
12,CC(C)C(C)(C)N1N=C([O-])O[NH2+]1,38 °C
13,CCCc1ccc2nc(F)c(S(N)(=O)=O)n2n1,148 °C
14,CC(C)CNC(=O)CN1CCN(Cc2ccc3c(c2)NC(=O)C(C)O3)CC1 (centres undefined),150 °C
15,O=C1NCc2c1c1c3cc(O)ccc3[nH]c1c1[nH]c3ccc(O)cc3c21,> 330 °C
16,CC(C)(C)c1ccc2c(c1)CNC2=O,132 to 134 °C
17,CCCCn1c(=O)c2c(N3CCN(C)CC3)cc(Cl)cc2n(Cc2ccccc2)c1=O,121 to 123 °C
18,COc1ccc(F)cc1C(C)(C)CC(O)(Cc1cc(C)cc(C)n1)C(F)(F)F (centres undefined),95 to 98 °C
19,CCOC(=O)c1cnn(-c2ccc(OCC3CC3)c(C#N)c2)c1,147 to 149 °C
20,CCOC1CC(n2cc(CC)c(=O)[nH]c2=O)OC1CO (centres undefined),157 °C
21,COc1cc(NC2=NCC3(CN4CCC3CC4)O2)ncn1 (centres undefined),80 to 85 °C
22,OC(COCc1cccnc1)c1ccc2occc2c1 (centres undefined),85 to 86 °C
23,CCOC(=O)c1ccc(/C=C(\C)C=O)s1,98 °C
24,CC(C)CCCC(C)C1CCC2C3CC=C4CC(OCCCCCCSC5OC(CO)C(O)C(O)C5O)CCC4(C)C3CCC12C (centres undefined),110 °C
25,CC(CC(=O)NCc1ccccc1)C(N)=O (centres undefined),127 to 129 °C
26,CN1CCC23c4c5ccc(O)c4OC2C(OC2OC(C(=O)O)C(O)C(O)C2O)C=CC3C1C5 (centres undefined),240 to 243 °C

row,SMILES,melting point
1,ClCc1cccc2nnsc12,78 to 80 °C
2,Cc1cc(Br)c(C)cc1N,92 to 93 °C
3,CCCC(=O)c1cc2nc(C(=O)OCC)n(C)c2cc1C,106 to 108 °C
4,O=C=NCc1cccnc1,141 to 146 °C
5,COC(=O)c1cccc([N+](=O)[O-])c1Cl,68 to 70 °C
6,CCCCc1ccc(CCCCC(N)(CO)CO)cc1,92 to 94 °C
7,C=CCn1c(C(F)(F)F)nc2cc(-n3c(=O)cc(C(F)(F)F)n(C)c3=O)ccc21,185 to 187 °C
8,CCOCCn1cc2c(=O)[nH]c(=O)[nH]c2n1,> 300 °C
9,O=C(O)C=c1sc2n(c1=O)Cc1ccccc1N=2,263 to 264 °C
10,CCCn1nc(C)c([N+](=O)[O-])c1C(N)=O,136 to 138 °C
11,ON=C(Cc1ccc(Cl)cc1)c1ccc(Cl)cc1Cl,91 °C
12,O=C(O)C(=O)c1csc2ccccc12,92 to 93 °C
13,CCOC(=O)c1cn(-c2cc(NC(=O)OC(C)(C)C)c(F)cc2F)c2cc(F)c(C)cc2c1=O,205 to 207 °C
14,CSc1ccc(N2CCON(C)C2=O)cc1C(F)(F)F,60 °C
15,COc1nc2c(c(OC)n1)C(c1cc(OC)c(OC)c(OC)c1)C1=C(COC1=O)N2 (centres undefined),299 to 300 °C
16,Cc1cc(C)c(C)c(-c2cc3cnc(N)nc3nc2N)c1C,327 to 331 °C
17,COc1cc(OC)c2c(=O)[nH]c(-c3cc(C)c(OC)c(C)c3)cc2n1,262 to 263 °C
18,O=C(Cl)CN1C(=O)C(Cl)=C(Cl)C1=O,102 to 103 °C
19,COCc1cc(C(O)CNCCCCCOCCc2ccc(F)cc2)ccc1O (centres undefined),86 to 87 °C
20,O=C(O)Cc1ccc(N2CC3=C(CC=CC3)C2=O)cc1,198 to 200 °C
21,CC(C)C(=O)Nc1ccn(C)c1,125 to 126 °C
22,CCCCSc1ccc(C=O)cc1[N+](=O)[O-],93 °C
23,N#Cc1cccc(NC(=O)c2ccn(-c3ccc(Cl)cc3)c2)c1N1CCC(N2CCOCC2)CC1,220 °C
24,COC(=O)NC(C)(C)c1ccc(CC#N)cc1,88 to 90 °C
25,Fc1cc(Cl)c(OC(F)F)cc1-n1nc2c(c1Cl)CCCC2,83 to 85 °C
26,CC(=O)CCN1c2ccccc2NC(=O)C1C (racemic),108 to 109 °C

# Results, then the compound that gave them:
row,melting point,SMILES
1,125 to 127 °C,CN(CC1OCCO1)c1nccc(Oc2ccc(NC(=O)c3cc(F)cc(N4CCCCC4)c3)c3ccccc23)n1
2,160 to 161 °C,CC(=O)Nc1nc2c(Oc3cc(-c4ccc(C(F)(F)F)cc4N)ncn3)cccc2s1
3,60 to 100 °C,Cc1cc(Cl)ccc1N=CNN=C(c1ccc(Cl)cc1)c1ccc(OS(C)(=O)=O)cc1
4,140 to 142 °C,O=c1c2cc(Cl)ccc2ccc2ncccc12
5,146 to 148 °C,COc1cc2c(c(Cl)c1Cl)C(=O)C(C)(C)C2c1ccccc1 (centres undefined)
6,278 to 283 °C,CN1C(=O)Cn2cc(C(=O)NCc3ccc(Cl)cc3)c(=O)c3cc(I)cc1c32
7,116 °C,Cc1cc(O)cc(C)c1-c1cccc2c1Oc1ccccc1S2
8,94 to 95 °C,CCCCCCc1cc2c(cc1C(=O)Oc1ccc(C(=O)OCc3ccccc3)cn1)C(C)(C)CCC2(C)C
9,131 to 133 °C,CC(C)(C)OC(=O)N1CC(CCl)c2c1ccc1ccc(S(=O)(=O)N(Cc3ccccc3)Cc3ccccc3)cc21 (centres undefined)
10,52 to 56 °C,COC(=O)Cc1ccc(OCCNC(=O)C2Cc3ccccc3N2S(=O)(=O)c2ccc(-c3cc(F)ccc3Cl)cc2)cc1 (centres undefined)
11,165 to 168 °C,CNC(=O)C(Cc1ccc(OC)cc1)NC(=O)C(C)(CC(C)C)c1ccccc1S (centres undefined)
12,141 to 142 °C,CCc1ccccc1-c1nc(-c2cccc(OC)c2)nn1C(=O)Nc1ccc(C)cc1
13,258 to 260 °C,COc1ccc(-c2c(NCCc3ccc(C(C)(C)C)cc3)c(=O)c2=O)cc1
14,216 to 217 °C,Nc1cccc2c1sc1c(Nc3cccc(Br)c3)ncnc12
15,211 to 214 °C,Cc1noc(NS(=O)(=O)c2ccccc2-c2ccc(-c3ccncn3)cc2)c1C
16,157 to 158 °C,CC(c1ccc2c(c1)[nH]c1ccccc12)n1ccnc1 (centres undefined)
17,119 to 120 °C,CC(Cc1cc(C(=O)c2ccccc2)ccc1OC(=O)C(C)(C)C)C(=O)O (centres undefined)
18,213 to 214 °C,CNC(=O)Nc1ccc(-c2ccncc2)c(C)n1
19,224 to 225 °C,Cc1cc2ccccc2c(Oc2ccc(/C=C/C(=O)O)cc2)c1-c1ccccc1
20,115 to 116 °C,COc1ccc(CN2C(=O)C(N)C(=O)N(CCC(C)C)c3ccccc32)cc1 (centres undefined)
21,> 300 °C,NC(=O)c1cc(-c2ccncc2)c[nH]c1=O
22,130 °C,CON=C1CC(=NOC)c2ccccc2-c2ccccc21
23,182 to 184 °C,CCC=Cc1ncc(/C=C(\Cc2cccs2)c2nnn[nH]2)n1Cc1ccccc1Cl
24,233 to 234 °C,CC(=O)Oc1c(C)cc(C=CC(=O)Nc2cnc3c(C)cc(C)cc3c2-c2ccccc2Cl)c(C)c1C

row,melting point,SMILES
1,137 to 138 °C,CCOc1cc(COc2nn(Cc3ccccc3)cc2CO)ccc1OCc1nc(-c2ccco2)oc1C
2,265 to 267 °C,Cn1cc2c(n1)-c1sccc1N(C(=O)c1ccc(NC(=O)c3ccc(Cl)cc3Cl)cc1)CC2
3,159 to 161 °C,Oc1ccc2c(c1)COc1c-2cc2ccc(O)cc2c1-c1ccsc1
4,200 to 201 °C,COc1cccc(C(C)n2nc(C(=O)O)c3c2-c2ccc(OCc4cncnc4)cc2CC3)c1 (centres undefined)
5,124 to 126 °C,CC(C)(C)OC(=O)Cn1c(-c2ccccn2)nc2cccnc21
6,169 °C,OCCOc1ccc(-c2nc(-c3ccc(OCCO)cc3O)nc(-c3ccc(OCCO)cc3O)n2)cc1
7,178 to 180 °C,CCn1c2ccccc2n2c(=O)c(C(=O)NC)cnc12
8,162 °C,COc1ccc(C(CSc2ccccc2N)C(=O)O)cc1OC (centres undefined)
9,128 to 129 °C,Cc1oc(COc2ccccc2/C=C/CO)nc1-c1ccccc1
10,129 to 130 °C,O=S(=O)(Oc1ccc(Oc2ccc(OS(=O)(=O)c3ccccc3)cc2)cc1)c1ccccc1
11,188 °C,CS(=O)CCc1nc2nc[nH]c2c2nc(-c3ccc(-c4ccccc4)cc3)nn12 (centres undefined)
12,178 to 181 °C,Cn1cc(C(=O)NCc2ccc(Cl)cc2)c(=O)c2cc(CN3CCOCC3)cc(C#CCn3cnc(Cl)c3Cl)c21
13,119 to 123 °C,O=C1CCc2c(Oc3ccc([N+](=O)[O-])cn3)cccc21
14,166 to 168 °C,COc1ccc(CNc2nc(-c3ccccc3)c(-c3ccc(=O)n(C)n3)nc2C#N)cc1
15,184 to 186 °C,COc1ccc(-c2c[nH]c(-c3cccnc3)n2)cc1
16,183 to 185 °C,CS(=O)(=O)c1ccc(-c2cnn(-c3cccc(Cl)c3)c(=O)c2Cc2ccc(F)cc2)cc1
17,239 to 241 °C,O=C(O)CCCNC(=O)c1ccccc1NC(=O)c1cc([N+](=O)[O-])ccc1O
18,192 to 194 °C,CN(C)S(=O)(=O)c1cccc2c1Sc1ccc(OCc3ccccc3)cc1N2
19,202 to 204 °C,CSc1ccc(-c2n[nH]c(=O)cc2-c2ccc(Cl)cc2)cc1
20,208 to 210 °C,C[Si](C)(C)c1ccc2cc(C(=O)Nc3ccc(N4CCC4)nc3)n(Cc3cccc(F)c3)c2c1
21,155 to 156 °C,COc1ccc(-n2cnc3ccc(-c4nnc(SCc5cccc(F)c5)o4)cc32)cc1
22,207 to 208 °C,COc1ccnc(CCc2nc3cc(I)cnc3[nH]2)c1
23,199 to 201 °C,Cc1c(Sc2ccc(Cl)cc2)nn(-c2ccc(S(C)(=O)=O)cc2)c(=O)c1C#N
